Test results from ChEMBL document CHEMBL1142994, “Structure-based design, synthesis, and biological evaluation of potent and selective macrocyclic checkpoint kinase 1 inhibitors” (J Med Chem, 2007).

Assays:
[1] = molecular target: T1, Serine/threonine-protein kinase Chk1 (Homo sapiens, UniProt O14757); test: Inhibition of recombinant Chk1
T1 sequence (O14757 whole entry): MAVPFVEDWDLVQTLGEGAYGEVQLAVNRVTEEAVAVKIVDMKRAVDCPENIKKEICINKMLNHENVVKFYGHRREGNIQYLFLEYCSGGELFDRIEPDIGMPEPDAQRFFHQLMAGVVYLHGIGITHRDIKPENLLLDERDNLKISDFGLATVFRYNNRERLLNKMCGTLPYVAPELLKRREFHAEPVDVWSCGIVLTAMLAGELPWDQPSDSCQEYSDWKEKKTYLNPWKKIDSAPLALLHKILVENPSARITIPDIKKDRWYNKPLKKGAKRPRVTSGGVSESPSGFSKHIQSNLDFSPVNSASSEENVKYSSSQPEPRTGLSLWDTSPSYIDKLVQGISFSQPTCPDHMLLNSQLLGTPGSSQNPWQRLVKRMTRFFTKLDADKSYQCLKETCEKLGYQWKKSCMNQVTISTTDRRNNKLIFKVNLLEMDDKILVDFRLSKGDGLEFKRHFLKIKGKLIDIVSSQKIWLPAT

[2] = system: NCI-H1299; test: Inhibition of accumulation of H1299 cells in G2/M phase in presence of doxorubicin by FACS assay; format: functional, cell-based, Homo sapiens
[3] = system: NCI-H1299; test: Accumulation of H1299 cells in G2/M phase measured as cell cycle arrest by FACS assay; format: functional, cell-based, Homo sapiens
[4] = system: HeLa; test: Cytotoxicity against HeLa cells in presence of doxorubicin by MTS assay; format: functional, cell-based, Homo sapiens
[5] = system: HeLa; test: Cytotoxicity against HeLa cells by MTS assay; format: functional, cell-based, Homo sapiens
[6] = molecular target: T2, Serine/threonine-protein kinase Sgk1 (Homo sapiens, UniProt O00141); test: Inhibition of SGK
T2 sequence (O00141 whole entry): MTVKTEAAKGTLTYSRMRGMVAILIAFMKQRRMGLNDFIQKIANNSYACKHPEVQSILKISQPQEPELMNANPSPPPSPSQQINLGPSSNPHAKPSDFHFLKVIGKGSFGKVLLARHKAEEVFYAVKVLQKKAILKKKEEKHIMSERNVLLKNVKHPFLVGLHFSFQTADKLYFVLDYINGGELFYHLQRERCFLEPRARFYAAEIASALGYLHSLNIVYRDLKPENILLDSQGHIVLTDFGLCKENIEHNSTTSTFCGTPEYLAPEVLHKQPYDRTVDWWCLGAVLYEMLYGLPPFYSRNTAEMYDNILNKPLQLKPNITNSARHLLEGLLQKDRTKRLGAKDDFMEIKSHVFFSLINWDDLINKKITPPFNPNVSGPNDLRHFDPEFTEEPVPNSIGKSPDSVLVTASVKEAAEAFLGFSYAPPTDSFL

[7] = molecular target: T3, Calcium/calmodulin-dependent protein kinase type IV (Homo sapiens, UniProt Q16566); test: Inhibition of Camk4
T3 sequence (Q16566 whole entry): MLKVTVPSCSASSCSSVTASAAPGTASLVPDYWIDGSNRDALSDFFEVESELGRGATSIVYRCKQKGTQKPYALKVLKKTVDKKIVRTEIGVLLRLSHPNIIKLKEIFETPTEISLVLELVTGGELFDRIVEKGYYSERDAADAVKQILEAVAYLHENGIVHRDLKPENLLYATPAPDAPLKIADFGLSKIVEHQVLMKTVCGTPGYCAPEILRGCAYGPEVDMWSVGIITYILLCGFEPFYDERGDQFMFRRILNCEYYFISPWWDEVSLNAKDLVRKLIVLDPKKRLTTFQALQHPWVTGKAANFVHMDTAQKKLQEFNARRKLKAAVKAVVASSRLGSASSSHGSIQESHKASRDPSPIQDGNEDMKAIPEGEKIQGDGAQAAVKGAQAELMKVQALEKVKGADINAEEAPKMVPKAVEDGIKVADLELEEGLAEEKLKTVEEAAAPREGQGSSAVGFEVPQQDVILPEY

[8] = molecular target: T4, Mitogen-activated protein kinase 13 (Homo sapiens, UniProt O15264); test: Inhibition of p38 delta
T4 sequence (O15264 whole entry): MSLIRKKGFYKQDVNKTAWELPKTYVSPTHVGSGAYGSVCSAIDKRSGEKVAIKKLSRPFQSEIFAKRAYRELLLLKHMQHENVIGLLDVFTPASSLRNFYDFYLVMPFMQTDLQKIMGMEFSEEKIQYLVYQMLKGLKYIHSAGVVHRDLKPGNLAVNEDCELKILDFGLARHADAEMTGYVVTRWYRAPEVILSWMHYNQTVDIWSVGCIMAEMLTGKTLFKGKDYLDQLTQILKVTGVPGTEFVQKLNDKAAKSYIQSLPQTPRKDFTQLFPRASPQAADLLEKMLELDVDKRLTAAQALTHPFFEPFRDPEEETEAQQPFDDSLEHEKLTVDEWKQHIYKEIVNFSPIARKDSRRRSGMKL

[9] = Homo sapiens, HeLa, read-out: EC50

CC(O)C#Cc1cc2c(cc1Cl)NC(=O)Nc1cnc(C#N)c(n1)OCCCCCO2 (stereo not drawn)
IC50 [1]: 26 nM

N#Cc1ncc2nc1OCCCCCOc1cc(CC(O)CO)c(Cl)cc1NC(=O)N2 (stereo not drawn)
IC50 [1]: 5 nM

CCN(CC)CC#Cc1cc2c(cc1Cl)NC(=O)Nc1cnc(C#N)c(n1)OCCCCCO2
IC50 [1]: 2 nM

CN(C)CCOc1cc2c(cc1Cl)NC(=O)Nc1cnc(C#N)c(n1)OCCCCCO2
IC50 [1]: 1 nM

CC(C)CCOc1cc2c(cc1Cl)NC(=O)Nc1cnc(C#N)c(n1)OCCCCCO2
IC50 [1]: 1060 nM

N#Cc1ncc2nc1OCCCCCOc1cc(C#CCO)c(Cl)cc1NC(=O)N2
IC50 [1]: 10 nM

N#Cc1ncc2nc1OCCCCCOc1cc(OCCn3ccnc3)c(Cl)cc1NC(=O)N2
IC50 [1]: 3 nM

N#Cc1ncc2nc1OCCCCCOc1ccc(Cl)cc1NC(=O)N2
EC50 ([2]; Homo sapiens, NCI-H1299): 2700 nM
EC50 ([3]; Homo sapiens, NCI-H1299): > 10000 nM
EC50 ([4]; Homo sapiens, HeLa): 3040 nM
IC50 [1]: 7 nM
EC50 [5]: 57600 nM

CC(C)Nc1cc2c(cc1Cl)NC(=O)Nc1cnc(C#N)c(n1)OCCCCCO2
IC50 [1]: 11 nM

N#Cc1ncc2nc1OCCCCCOc1cc(NCc3ccncc3)c(Cl)cc1NC(=O)N2
EC50 ([2]; nci-h1299): 1200 nM
EC50 ([3]; nci-h1299): > 10000 nM
EC50 ([4]; hela): 1400 nM
IC50 [1]: 13 nM
EC50 ([5]; hela, read-out: EC50): > 59000 nM

CN(C)CC(=O)Nc1cc2c(cc1Cl)NC(=O)Nc1cnc(C#N)c(n1)OCCCCCO2
IC50 [1]: 1 nM

CCNc1cc2c(cc1Cl)NC(=O)Nc1cnc(C#N)c(n1)OCCCCCO2
IC50 [1]: 4 nM

N#Cc1ncc2nc1OCCCCCOc1cc(OCc3cccnc3)c(Cl)cc1NC(=O)N2
IC50 [1]: 9 nM

N#Cc1ncc2nc1OCCCCCOc1cc(OCc3ccccn3)c(Cl)cc1NC(=O)N2
IC50 [1]: 63 nM

N#Cc1ncc2nc1OCCCCCOc1cc(NCCO)c(Cl)cc1NC(=O)N2
IC50 [1]: 2 nM

N#Cc1ncc2nc1OCCCCCOc1cc(NCc3ccccc3)c(Cl)cc1NC(=O)N2
IC50 [1]: 266 nM

CC(=O)Nc1cc2c(cc1Cl)NC(=O)Nc1cnc(C#N)c(n1)OCCCCCO2
IC50 [1]: 7 nM

CCOc1cc2c(cc1Cl)NC(=O)Nc1cnc(C#N)c(n1)OCCCCCO2
IC50 [1]: 6 nM

N#Cc1ncc2nc1OCCCCCOc1cc(OCc3ccncc3)c(Cl)cc1NC(=O)N2
IC50 [1]: 12 nM

N#Cc1ncc2nc1OCCCCCOc1cc(NCc3cncs3)c(Cl)cc1NC(=O)N2
EC50 ([2]; Homo sapiens, NCI-H1299): 110 nM
EC50 ([3]; Homo sapiens, NCI-H1299): > 10000 nM
EC50 ([4]; Homo sapiens, HeLa): 1200 nM
IC50 [1]: 6 nM
EC50 [5, 9]: > 59000 nM

N#Cc1ncc2nc1OCCCCCOc1cc(CCCO)c(Cl)cc1NC(=O)N2
EC50 ([2]; Homo sapiens, NCI-H1299): 190 nM
EC50 ([3]; Homo sapiens, NCI-H1299): > 10000 nM
EC50 ([4]; Homo sapiens, HeLa): 860 nM
EC50 [5, 9]: 28700 nM
Ki [6]: > 10000 nM
Ki [7]: > 10000 nM

CS(=O)(=O)Nc1cc2c(cc1Cl)NC(=O)Nc1cnc(C#N)c(n1)OCCCCCO2
EC50 ([2]; Homo sapiens, NCI-H1299): 1600 nM
Ki [8]: > 10000 nM
EC50 ([3]; Homo sapiens, NCI-H1299): > 10000 nM
EC50 ([4]; Homo sapiens, HeLa): 2700 nM
EC50 [5, 9]: > 59000 nM
Ki [6]: > 10000 nM
Ki [7]: > 10000 nM

N#Cc1ncc2nc1OCCCCCOc1cc(N3CCCCC3)c(Cl)cc1NC(=O)N2
IC50 [1]: 139 nM

O=C1Nc2cncc(n2)OCCCCCOc2ccc(Cl)cc2N1
EC50 ([2]; Homo sapiens, NCI-H1299): 7500 nM
EC50 ([3]; Homo sapiens, NCI-H1299): > 10000 nM
EC50 ([4]; Homo sapiens, HeLa): 37800 nM
IC50 [1]: 10 nM
EC50 [5]: >59000 nM

CCCCNc1cc2c(cc1Cl)NC(=O)Nc1cnc(C#N)c(n1)OCCCCCO2
IC50 [1]: 15 nM

N#Cc1ncc2nc1OCCCCCOc1cc(NCc3ccsc3)c(Cl)cc1NC(=O)N2
IC50 [1]: 162 nM

N#Cc1ncc2nc1OCCCCCOc1cc(NC(=O)CCNC3CCCC3)c(Cl)cc1NC(=O)N2
IC50 [1]: 2 nM

N#Cc1ncc2nc1OCCCCCOc1cc(N(CCO)CCO)c(Cl)cc1NC(=O)N2
IC50 [1]: 4 nM

CNc1cc2c(cc1Cl)NC(=O)Nc1cnc(C#N)c(n1)OCCCCCO2
IC50 [1]: 2 nM

CC(C)Oc1cc2c(cc1Cl)NC(=O)Nc1cnc(C#N)c(n1)OCCCCCO2
IC50 [1]: 13 nM

CC(C)CNc1cc2c(cc1Cl)NC(=O)Nc1cnc(C#N)c(n1)OCCCCCO2
IC50 [1]: 17 nM

N#Cc1ncc2nc1OCCCCCOc1cc(OCCCO)c(Cl)cc1NC(=O)N2
Ki [8]: > 10000 nM
Ki [6]: > 10000 nM
Ki [7]: > 10000 nM

N#Cc1ncc2nc1OCCCCCOc1cc(OCCCN)c(Cl)cc1NC(=O)N2
IC50 [1]: 1 nM

N#Cc1ncc2nc1OCCCCCOc1cc(NCc3cccnc3)c(Cl)cc1NC(=O)N2
EC50 ([2]; nci-h1299): 330 nM
EC50 ([3]; nci-h1299): > 10000 nM
EC50 ([4]; hela): 1600 nM
IC50 [1]: 12 nM
EC50 ([5]; hela, read-out: EC50): > 59000 nM

N#Cc1ncc2nc1OCCCCCOc1cc(N)c(Cl)cc1NC(=O)N2
EC50 ([2]; Homo sapiens, NCI-H1299): 240 nM
EC50 ([3]; Homo sapiens, NCI-H1299): 7600 nM
EC50 ([4]; Homo sapiens, HeLa): 430 nM
IC50 [1]: 3 nM
EC50 [5, 9]: > 59000 nM

COCCOc1cc2c(cc1Cl)NC(=O)Nc1cnc(C#N)c(n1)OCCCCCO2
IC50 [1]: 5 nM

N#Cc1ncc2nc1OCCCCCOc1cc(NCc3cnco3)c(Cl)cc1NC(=O)N2
IC50 [1]: 7 nM

N#Cc1ncc2nc1OCCCCCCOc1ccc(Cl)cc1NC(=O)N2
IC50 [1]: 28 nM

CC(C)CCCOc1cc2c(cc1Cl)NC(=O)Nc1cnc(C#N)c(n1)OCCCCCO2
IC50 [1]: > 10000 nM

N#Cc1ncc2nc1OCCCCOc1ccc(Cl)cc1NC(=O)N2
EC50 ([3]; Homo sapiens, NCI-H1299): > 10000 nM
EC50 ([4]; Homo sapiens, HeLa): 3080 nM
IC50 [1]: 6 nM
EC50 [5]: 57600 nM

Cn1cncc1CNc1cc2c(cc1Cl)NC(=O)Nc1cnc(C#N)c(n1)OCCCCCO2
IC50 [1]: 2 nM

N#Cc1ncc2nc1OCCCCCOc1cc(O)c(Cl)cc1NC(=O)N2
EC50 ([4]; Homo sapiens, HeLa): 1900 nM
IC50 [1]: 6 nM
EC50 [5, 9]: > 59000 nM

COCCOCCOc1cc2c(cc1Cl)NC(=O)Nc1cnc(C#N)c(n1)OCCCCCO2
IC50 [1]: 9 nM

CC(C)(O)C#Cc1cc2c(cc1Cl)NC(=O)Nc1cnc(C#N)c(n1)OCCCCCO2
IC50 [1]: 109 nM

CN(C)c1cc2c(cc1Cl)NC(=O)Nc1cnc(C#N)c(n1)OCCCCCO2
IC50 [1]: 7 nM

N#Cc1ncc2nc1OCCCCCOc1cc(OCCO)c(Cl)cc1NC(=O)N2
EC50 ([2]; Homo sapiens, NCI-H1299): 700 nM
EC50 ([3]; Homo sapiens, NCI-H1299): > 10000 nM
EC50 ([4]; Homo sapiens, HeLa): 3010 nM
EC50 [5, 9]: > 59000 nM

CCN(CC)c1cc2c(cc1Cl)NC(=O)Nc1cnc(C#N)c(n1)OCCCCCO2
IC50 [1]: 248 nM

N#Cc1ncc2nc1OCCCCCOc1cc(NCc3c[nH]cn3)c(Cl)cc1NC(=O)N2
IC50 [1]: 231 nM
